Assay results taken from patent US9423396B2, “Bodipy structure fluorescence probes for diverse biological applications” (National University of Singapore, priority 2011, dated 2016).

Assays:
Beta TC-6 cells = experiment: High throughput cell-based screening on acinar, Alpha TC-1 and Beta TC-6 cells; set-up: species or system mouse; conditions: 1 μM, 1 hr to 48 hours, 384-well plates
Protocol: To discover pancreatic islet selective probes, we expanded the other two types of BODIPY library generated from the original GY (Glucagon Yellow) structure. We started with high throughput cell-based screening using mouse acinar cells composed of exocrine tissue, mouse Alpha TC-1 cells and Beta TC-6 cells composed of endocrine pancreas islets. Those three different types of cells were prepared side by side in 384-well plates and incubated with 1 μM of BODIPY compounds for different incubation times ranging from 1 hr to 48 hours. The fluorescence images were acquired on an automated imaging microscope system ImageXpress Micro™. The fluorescence intensity of the stained cells was analyzed using MetaXpress® image processing software.

[1] = Spectroscopic measurements (absorption, emission, quantum yield, extinction coefficient); format: physicochemical
[2] = BDNCA library, difference emission minus absorption
[3] = BDNCA library, extinction coefficient; in M-1 cm-1 (unit assumed)
[4] = BDNCA library, fluorescence emission
[5] = absorption maximum, BDNCA library
[6] = difference of emission and absorption maxima
[7] = extinction coefficient, BDNCA library; in M-1 cm-1 (unit assumed)
[8] = fluorescence emission maximum, BDNCA library

Row | SMILES | staining of alpha cells and beta cells compared with acinar cells (Beta TC-6 cells) | Qunt. Yield ([1]; BDNCA library) | Abs ([1]; BDNCA library, absorption) | Flu-Abs [1, 2] | ε [1, 3] | Flu [1, 4] | Abs [1, 5] | Flu-Abs [1, 6] | ε [1, 7] | Flu [1, 8] | Qunt. Yield ([1]; quantum yield, BDNCA library)
1 | Cc1cc(/C=C/c2ccc(-c3ccccc3)cc2)n2c1C(c1ccc(NC(=O)CCl)cc1)=C1C=CC=[N+]1[B-]2(F)F [BDNCA-5] | stained either both alpha cells and beta cells or beta cells only as compared with acinar cells | 0.09 | 566 nm | 23 | 39,542 | 589 | – | – | – | – | –
2 | CC1=CC(/C=C/c2cc(C)c(OCc3ccccc3)c(C)c2)=[N+]2C1=C(c1ccc(NC(=O)CCl)cc1)c1cccn1[B-]2(F)F [BDNCA-16] | stained either both alpha cells and beta cells or beta cells only as compared with acinar cells | 0.13 | 562 nm | 23 | 55,469 | 585 | – | – | – | – | –
3 | Cc1cc(/C=C/c2ccc(OCc3ccc(F)cc3)cc2)n2c1C(c1ccc(NC(=O)CCl)cc1)=C1C=CC=[N+]1[B-]2(F)F [BDNCA-378] | – | – | – | – | – | – | 566 nm | 31 | 92,540 | 597 | 0.16
4 | CC1=CC(/C=C/c2ccccc2I)=[N+]2C1=C(c1ccc(NC(=O)CCl)cc1)c1cccn1[B-]2(F)F [BDNCA-384] | – | – | – | – | – | – | 555 nm | 23 | 60,686 | 578 | 0.11
5 | CCOc1cc(/C=C/C2=[N+]3C(=C(c4ccc(NC(=O)CCl)cc4)c4cccn4[B-]3(F)F)C(C)=C2)ccc1O [BDNCA-397] | – | – | – | – | – | – | 573 nm | 40 | 38,444 | 613 | 0.01
6 | CC1=CC(/C=C/c2cccc(B(O)O)c2)=[N+]2C1=C(c1ccc(NC(=O)CCl)cc1)c1cccn1[B-]2(F)F [BDNCA-404] | – | – | – | – | – | – | 556 nm | 18 | 18,124 | 574 | 0.03
7 | Cc1cc(/C=C/c2cc(Cl)ccc2Cl)n2c1C(c1ccc(NC(=O)CCl)cc1)=C1C=CC=[N+]1[B-]2(F)F [BDNCA-407] | – | – | – | – | – | – | 555 nm | 20 | 42,288 | 575 | 0.07
8 | Cc1cc(/C=C/c2ccc(Br)cc2)n2c1C(c1ccc(NC(=O)CCl)cc1)=C1C=CC=[N+]1[B-]2(F)F [BDNCA-409] | – | – | – | – | – | – | 557 nm | 20 | 87,597 | 577 | 0.14
9 | CC1=CC(/C=C/C2CCCCC2)=[N+]2C1=C(c1ccc(NC(=O)CCl)cc1)c1cccn1[B-]2(F)F [BDNCA-414] | – | – | – | – | – | – | 524 nm | 23 | 49,428 | 547 | 0.09
10 | CC1=CC(/C=C/C=C/c2ccco2)=[N+]2C1=C(c1ccc(NC(=O)CCl)cc1)c1cccn1[B-]2(F)F [BDNCA-417] | – | – | – | – | – | – | 519 nm | – | 13,730 | weak | weak
11 | CC1=CC(/C=C/c2cccs2)=[N+]2C1=C(c1ccc(NC(=O)CCl)cc1)c1cccn1[B-]2(F)F [BDNCA-423] | – | – | – | – | – | – | 569 nm | 25 | 61,510 | 594 | 0.10
12 | CC1=CC(/C=C/c2ccc(-c3ccccc3)c(F)c2)=[N+]2C1=C(c1ccc(NC(=O)CCl)cc1)c1cccn1[B-]2(F)F [BDNCA-425] | – | – | – | – | – | – | 562 nm | 21 | 46,957 | 583 | 0.11
13 | CC1=CC(/C=C/c2ccc(-c3ccc(Br)cc3)o2)=[N+]2C1=C(c1ccc(NC(=O)CCl)cc1)c1cccn1[B-]2(F)F [BDNCA-428] | – | – | – | – | – | – | 506 nm | 151 | 17,025 | 657 | 0.02
14 | CCOc1ccc(/C=C/C2=[N+]3C(=C(c4ccc(NC(=O)CCl)cc4)c4cccn4[B-]3(F)F)C(C)=C2)cc1 [BDNCA-429] | – | – | – | – | – | – | 566 nm | 33 | 64,531 | 599 | 0.14
15 | CC1=CC(/C=C/c2c(C)nn(C)c2C)=[N+]2C1=C(c1ccc(NC(=O)CCl)cc1)c1cccn1[B-]2(F)F [BDNCA-430] | – | – | – | – | – | – | 567 nm | 34 | 37,895 | 601 | 0.09
16 | CC1=CC(/C=C/c2cccc(Oc3ccc(C(C)(C)C)cc3)c2)=[N+]2C1=C(c1ccc(NC(=O)CCl)cc1)c1cccn1[B-]2(F)F [BDNCA-435] | – | – | – | – | – | – | 556 nm | 20 | 61,510 | 576 | 0.13
17 | CC1=CC(/C=C/c2ccc(Cl)c(F)c2)=[N+]2C1=C(c1ccc(NC(=O)CCl)cc1)c1cccn1[B-]2(F)F [BDNCA-437] | – | – | – | – | – | – | 556 nm | 19 | 47,506 | 575 | 0.09
18 | COc1cc(/C=C/c2cc(C)c3n2[B-](F)(F)[N+]2=CC=CC2=C3c2ccc(NC(=O)CCl)cc2)ccc1OCCN1CCCC1 [BDNCA-458] | – | – | – | – | – | – | 569 nm | 39 | 25,538 | 608 | 0.06
